Where two headings read alike, the source gives them in different places.
Columns and labels:
[1] = target: Melatonin MT1 (Homo sapiens, UniProt P48039); test: Secondary receptor binding profile
[2] = target: Melatonin MT2 (Homo sapiens, UniProt P49286); test: Secondary receptor binding profile
[3] = Binding to human plasma proteins; format: in vitro ADME; settings: read-out: unbound fraction of the total plasma drug
[4] = target: P-gp (Homo sapiens, UniProt P08183); test: P-gp substrate assessment; format: in vitro ADME
Chain of P-gp (P08183 whole entry): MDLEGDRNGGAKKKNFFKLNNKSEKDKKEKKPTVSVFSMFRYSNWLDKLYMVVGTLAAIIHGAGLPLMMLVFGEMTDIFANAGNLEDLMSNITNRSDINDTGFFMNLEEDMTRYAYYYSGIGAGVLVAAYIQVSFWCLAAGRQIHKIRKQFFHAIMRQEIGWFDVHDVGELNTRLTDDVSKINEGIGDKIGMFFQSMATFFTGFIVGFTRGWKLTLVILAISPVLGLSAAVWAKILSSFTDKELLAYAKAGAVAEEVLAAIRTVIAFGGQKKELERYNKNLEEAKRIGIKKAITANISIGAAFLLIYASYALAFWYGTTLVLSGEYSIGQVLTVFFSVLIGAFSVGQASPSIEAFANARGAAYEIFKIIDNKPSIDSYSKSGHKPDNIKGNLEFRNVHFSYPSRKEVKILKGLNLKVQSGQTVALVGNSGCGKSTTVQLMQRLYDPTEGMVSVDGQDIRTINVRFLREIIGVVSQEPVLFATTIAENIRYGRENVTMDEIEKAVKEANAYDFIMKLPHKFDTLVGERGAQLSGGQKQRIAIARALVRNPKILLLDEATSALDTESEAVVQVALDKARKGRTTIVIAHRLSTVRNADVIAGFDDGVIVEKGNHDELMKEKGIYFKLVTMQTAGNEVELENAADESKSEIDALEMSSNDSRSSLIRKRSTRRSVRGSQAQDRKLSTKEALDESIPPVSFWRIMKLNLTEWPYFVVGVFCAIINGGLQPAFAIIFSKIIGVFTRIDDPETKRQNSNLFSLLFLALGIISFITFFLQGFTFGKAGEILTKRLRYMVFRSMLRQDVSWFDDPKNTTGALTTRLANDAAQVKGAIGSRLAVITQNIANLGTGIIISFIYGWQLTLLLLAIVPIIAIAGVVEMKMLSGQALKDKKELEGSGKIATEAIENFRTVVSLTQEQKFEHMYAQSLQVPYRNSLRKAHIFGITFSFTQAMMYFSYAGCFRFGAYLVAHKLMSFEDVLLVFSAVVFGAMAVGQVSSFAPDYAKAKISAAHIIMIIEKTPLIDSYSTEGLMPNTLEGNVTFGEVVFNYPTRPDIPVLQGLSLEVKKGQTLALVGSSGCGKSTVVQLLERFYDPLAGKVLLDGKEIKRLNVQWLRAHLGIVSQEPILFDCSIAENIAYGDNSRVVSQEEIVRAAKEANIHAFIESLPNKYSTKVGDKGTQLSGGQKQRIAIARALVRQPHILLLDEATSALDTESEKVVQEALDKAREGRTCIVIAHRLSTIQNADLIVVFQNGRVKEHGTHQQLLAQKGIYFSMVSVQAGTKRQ

[5] = target: GABAA α1β2γ2; parameters: method as in Christian et al 2015; settings: recombinant Sf9 membranes α1β2γ2; [3H]flunitrazepam; mean (SD); ref Christian et al 2015; read-out: Affinity in vitro at BZ binding site (Ki) α1; cited from earlier work
[6] = target: GABAA α2β3γ2; parameters: method as in Christian et al 2015; settings: recombinant Sf9 membranes α2β3γ2; [3H]flunitrazepam; mean (SD); ref Christian et al 2015; read-out: Affinity in vitro at BZ binding site (Ki) α2; cited from earlier work
[7] = target: GABAA α3β3γ2; parameters: method as in Christian et al 2015; settings: recombinant Sf9 membranes α3β3γ2; [3H]flunitrazepam; mean (SD); ref Christian et al 2015; read-out: Affinity in vitro at BZ binding site (Ki) α3; cited from earlier work
[8] = target: GABAA α5β3γ2; parameters: method as in Christian et al 2015; settings: recombinant Sf9 membranes α5β3γ2; [3H]flunitrazepam; mean (SD); ref Christian et al 2015; read-out: Affinity in vitro at BZ binding site (Ki) α5; cited from earlier work
[9] = tested on: GABAA α1β2γ2; parameters: method as in Christian et al 2015; settings: 1µM test concentration, GABA EC10, % of 1 µM diazepam, mean ±SE, ref Christian et al 2015; cited from earlier work
[10] = tested on: GABAA α2β3γ2; parameters: method as in Christian et al 2015; settings: 1µM test concentration, GABA EC10, % of 1 µM diazepam, mean ±SE, ref Christian et al 2015; cited from earlier work
[11] = tested on: GABAA α3β3γ2; parameters: method as in Christian et al 2015; settings: 1µM test concentration, GABA EC10, % of 1 µM diazepam, mean ±SE, ref Christian et al 2015; cited from earlier work
[12] = parameters: method as in AstraZeneca Single Ascending Dose studies; settings: ref AstraZeneca Single Ascending Dose studies, cited from earlier work
[13] = tested on: generalized anxiety disorder; parameters: method as in Chen et al. 2014, ClinTrials.gov; settings: ref Chen et al. 2014, ClinTrials.gov; cited from earlier work
[14] = AZD6280 1mg, Part A, 8 subjects
[15] = AZD6280 5mg, Part B, 8 subjects
[16] = AZD6280 20mg, Part A, 8 subjects
[17] = AZD6280 30mg, Part B, 7 subjects
[18] = AZD6280 40mg, Part A, 8 subjects
[19] = AZD6280 60mg, Part B, 8 subjects

Chain of Melatonin MT2 (P49286 whole entry): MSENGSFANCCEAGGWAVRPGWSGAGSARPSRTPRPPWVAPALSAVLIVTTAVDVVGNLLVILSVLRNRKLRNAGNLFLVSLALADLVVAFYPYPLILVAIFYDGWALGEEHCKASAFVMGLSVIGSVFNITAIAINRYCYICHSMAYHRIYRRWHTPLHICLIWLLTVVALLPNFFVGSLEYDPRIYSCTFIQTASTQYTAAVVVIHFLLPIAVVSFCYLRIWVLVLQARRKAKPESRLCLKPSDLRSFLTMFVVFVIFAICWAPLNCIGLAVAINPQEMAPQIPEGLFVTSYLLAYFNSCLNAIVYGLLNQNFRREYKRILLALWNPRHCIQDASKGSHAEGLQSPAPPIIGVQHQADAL
Chain of Melatonin MT1 (P48039 whole entry): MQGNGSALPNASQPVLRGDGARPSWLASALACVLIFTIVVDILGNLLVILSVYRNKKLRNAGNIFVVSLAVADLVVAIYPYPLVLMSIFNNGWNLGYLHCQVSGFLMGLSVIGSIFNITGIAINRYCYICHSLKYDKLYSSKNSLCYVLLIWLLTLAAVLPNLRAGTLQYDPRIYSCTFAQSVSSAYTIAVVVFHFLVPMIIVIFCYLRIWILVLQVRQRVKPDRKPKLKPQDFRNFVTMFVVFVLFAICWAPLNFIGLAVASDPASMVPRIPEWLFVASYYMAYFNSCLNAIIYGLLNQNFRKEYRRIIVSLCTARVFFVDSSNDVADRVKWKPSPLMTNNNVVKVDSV

`CCCNC(=O)c1nnc2c(-c3cc(OC)ccc3OC)cccc2c1N` [AZD6280] gave an IC50 [1] of 0.116 µM, an IC50 [2] of 0.664 µM and a fraction unbound [3] of ~0.1. For the same compound, the P-gp substrate [4] was “Neither compound is a P-gp substrate”, the Ki [5] was 0.0005 ± 0.0002 µM and the Ki [6] was 0.021 ± 0.005 µM. The Ki [7] was 0.031 ± 0.017 µM, the Ki [8] was 1.68 ± 0.65 µM and the “Relative efficacy (%DZ) α1” value [9] was 9±3%. The “Relative efficacy (%DZ) α2” value [10] was 36±4%, the “Relative efficacy (%DZ) α3” value [11] was 34±3% and the “Number of subjects with at least one adverse event” value (“Number of subjects” below) [12, 14] was 2 (25) Number (%) of patients. The abnormal coordination [12, 14] was 0 Number (%) of patients, the depersonalisation [12, 14] was 0 Number (%) of patients and the dizziness [12, 14] was 0 Number (%) of patients. For the same compound, the dreamy state [12, 14] was 0 Number (%) of patients, the euphoric mood [12, 14] was 0 Number (%) of patients and the headache [12, 14] was 1 (13) Number (%) of patients. For the same compound, the nystagmus [12, 14] was 0 Number (%) of patients, the somnolence [12, 14] was 0 Number (%) of patients and the abnormal coordination [12, 15] was 0 Number (%) of patients. For the same compound, the depersonalisation [12, 15] was 0 Number (%) of patients, the dizziness [12, 15] was 2 (25) Number (%) of patients and the dreamy state [12, 15] was 0 Number (%) of patients. For the same compound, the euphoric mood [12, 15] was 0 Number (%) of patients, the headache [12, 15] was 1 (13) Number (%) of patients and the nystagmus [12, 15] was 0 Number (%) of patients. The somnolence [12, 15] was 1 (13) Number (%) of patients, the “Number of subjects” value [12, 16] was 6 (75) Number (%) of patients and the abnormal coordination [12, 16] was 0 Number (%) of patients. The depersonalisation [12, 16] was 0 Number (%) of patients, the dizziness [12, 16] was 0 Number (%) of patients and the dreamy state [12, 16] was 0 Number (%) of patients. The euphoric mood [12, 16] was 0 Number (%) of patients, the headache [12, 16] was 2 (25) Number (%) of patients and the nystagmus [12, 16] was 0 Number (%) of patients. The somnolence [12, 16] was 1 (13) Number (%) of patients, the “Number of subjects” value [12, 17] was 2 (29) Number (%) of patients and the abnormal coordination [12, 17] was 0 Number (%) of patients. For the same compound, the depersonalisation [12, 17] was 0 Number (%) of patients, the dizziness [12, 17] was 0 Number (%) of patients and the dreamy state [12, 17] was 0 Number (%) of patients. The euphoric mood [12, 17] was 1 (14) Number (%) of patients, the headache [12, 17] was 0 Number (%) of patients and the nystagmus [12, 17] was 0 Number (%) of patients. For the same compound, the somnolence [12, 17] was 2 (29) Number (%) of patients, the “Number of subjects” value [12, 18] was 6 (75) Number (%) of patients and the abnormal coordination [12, 18] was 0 Number (%) of patients. For the same compound, the depersonalisation [12, 18] was 0 Number (%) of patients, the dizziness [12, 18] was 0 Number (%) of patients and the dreamy state [12, 18] was 0 Number (%) of patients. For the same compound, the euphoric mood [12, 18] was 1 (13) Number (%) of patients, the headache [12, 18] was 0 Number (%) of patients and the nystagmus [12, 18] was 0 Number (%) of patients. The somnolence [12, 18] was 3 (38) Number (%) of patients, the “Number of subjects” value [12, 19] was 7 (88) Number (%) of patients and the abnormal coordination [12, 19] was 1 (13) Number (%) of patients. The depersonalisation [12, 19] was 1 (13) Number (%) of patients, the dizziness [12, 19] was 2 (25) Number (%) of patients and the dreamy state [12, 19] was 1 (13) Number (%) of patients. For the same compound, the euphoric mood [12, 19] was 0 Number (%) of patients, the headache [12, 19] was 1 (13) Number (%) of patients and the nystagmus [12, 19] was 1 (13) Number (%) of patients. The somnolence [12, 19] was 3 (38) Number (%) of patients.

In the case of `CCCNC(=O)c1nnc2c(-c3c(F)cccc3OC)cccc2c1N` [AZD7325], the “anxiolytic effect in patients with generalized anxiety disorder” value [13] is listed as “only a weak anxiolytic effect”.

From article PMC5263201, “GABAA receptor occupancy by subtype selective GABAAα2,3 modulators: PET studies in humans” (Psychopharmacology, 2016)
